Common to all, as to assay type: physicochemical
A short description of series [1]: Physical stability of crystal forms on heating, drying or storage, PXRD.
The nature of series [2]: Relative stability of hydrated Compound 1 forms vs water activity, PXRD. Conditions: for water activity value (aw) at which the form is the stable hydrate: 25° C. The method, then: The relative stability of hydrated Compound 1 Form II, Form IV, and Form V were studied at 25° C. and the results are shown in Table 6. […] Form V was determined to be the stable hydrate at aw=0.75, with […] the stable hydrate at aw=0.90. The water activity of the solvent mixture used for the crystallization process must be below 0.55 in order to obtain Form II consistently.

The nature of series [3]: Dynamic vapor sorption (DVS) analysis.
The nature of series [4]: Visual solubility estimate of amorphous Compound 1 in solvents. The settings on record: 40 °C, thermodynamic from solid.
Experiment in series [5]: as above
The method, then: The solubility of amorphous Compound 1 was estimated in 14 solvents to facilitate the solvent selection for the crystallization study. The solubility of Compound 1 was visually estimated at room temperature (RT; ˜23° C.) by dosing small aliquots of solvent into a fixed amount of solid (˜10 mg) until the dissolution point or a maximum volume (1.7 mL) was reached.

The mark [6] stands for this setting: 102097-CR6, 2-propanol: 20 vol % Water, water activity 0.9.
The mark [7] stands for this setting: CR5, Acetonitrile: 10 vol % Water, water activity 0.75.

≈ marks a conversion by molar mass, not a printed value. Read-outs that look alike come from different tables or passages of the source. A value given as a limit tells only on which side of the number the result lay.

For `CC(=O)c1nn(CC(=O)N2C[C@H](F)C[C@H]2C(=O)Nc2cccc(Br)n2)c2ccc(-c3cnc(C)nc3)cc12` [Form VI], the “PXRD pattern after sitting overnight” value in series [1] (overnight on a PXRD holder, ambient) is listed as “closely resembles Form V”.
Turning to `CC(=O)c1nn(CC(=O)N2C[C@H](F)C[C@H]2C(=O)Nc2cccc(Br)n2)c2ccc(-c3cnc(C)nc3)cc12` [Form IV], in series [1] (sealed vial), the “physically stable by PXRD, time” value is recorded as “at least 10 days”.
In the case of `CC(=O)c1nn(CC(=O)N2C[C@H](F)C[C@H]2C(=O)Nc2cccc(Br)n2)c2ccc(-c3cnc(C)nc3)cc12` [Form II], in series [2], the “water activity value (aw) at which the form is the stable hydrate” value (from here on “water activity value (aw)”) is listed as ≤ 0.55. The “water content of the hydrate by DVS” value in series [3] (DVS isotherm) was 2.7-4.0%. Further, in series [3] (reversible hydration), the “critical RH step (DVS)” value came to 30 % RH. In addition, the “crystal form by PXRD after heating past the dehydration endotherm” value in series [1] (heated past dehydration endotherm, returned to room temperature) is “does not change the crystal-form”.
For the molecule `CC(=O)c1nn(CC(=O)N2C[C@H](F)C[C@H]2C(=O)Nc2cccc(Br)n2)c2ccc(-c3cnc(C)nc3)cc12` [Form III], the “water activity value (aw)” value in series [2] turned out to be 0.90. For the same molecule, the “crystal form after drying” value in series [1] (70° C. under vacuum for 1 hour) is “did not change the crystal-form”.
In the case of `CC(=O)c1nn(CC(=O)N2C[C@H](F)C[C@H]2C(=O)Nc2cccc(Br)n2)c2ccc(-c3cnc(C)nc3)cc12` [Amorphous Compound 1], in series [3] (after DVS 0-90% RH), the “solid form after the DVS experiment by PXRD” value is on record as “remained amorphous”. Besides, the “water uptake (DVS)” value in series [3] (from 0-90% RH) came to 4.0%. Further, the solubility in series [4] (heptane, organic solvent or mixture) was < 5.59 mg/mL; in series [4] (t-butyl methyl ether, organic solvent or mixture), < 5.71 mg/mL; in series [4] (water), < 5.59 mg/mL; in series [5] (1,4-dioxane, 23 °C, organic solvent or mixture, thermodynamic from solid, 1,4-Dioxane, RT (~23° C.), visually estimated, read-out: Solubility at RT) it was 98 to 392 mg/mL (≈ 169 to 675 mM); in series [5] (2-propanol, 23 °C, organic solvent or mixture, thermodynamic from solid, 2-Propanol, RT (~23° C.), visually estimated, read-out: Solubility at RT), < 5.71 mg/mL; in series [5] (2-propanol, 40 °C, organic solvent or mixture, thermodynamic from solid, 2-Propanol, 40° C., read-out: Solubility at 40° C.), > 5.71 mg/mL. The solubility in series [5] (acetone, 23 °C, organic solvent or mixture, thermodynamic from solid, Acetone, RT (~23° C.), visually estimated, read-out: Solubility at RT) was 121 to 484 mg/mL (≈ 208 to 834 mM); in series [5] (acetonitrile, 23 °C, organic solvent or mixture, thermodynamic from solid, Acetonitrile, RT (~23° C.), visually estimated, read-out: Solubility at RT), 98 to 392 mg/mL (≈ 169 to 675 mM); in series [5] (chloroform, 23 °C, organic solvent or mixture, thermodynamic from solid, Chloroform, RT (~23° C.), visually estimated, read-out: Solubility at RT) it was 92 to 368 mg/mL (≈ 159 to 634 mM); in series [5] (dichloromethane, 23 °C, organic solvent or mixture, thermodynamic from solid, Dichloromethane, RT (~23° C.), visually estimated, read-out: Solubility at RT) it was 99 to 396 mg/mL (≈ 171 to 682 mM); in series [5] (dimethyl sulfoxide, 23 °C, organic solvent or mixture, thermodynamic from solid, Dimethyl Sulfoxide, RT (~23° C.), visually estimated, read-out: Solubility at RT) it was > 452 mg/mL; in series [5] (ethyl acetate, 23 °C, organic solvent or mixture, thermodynamic from solid, Ethyl Acetate, RT (~23° C.), visually estimated, read-out: Solubility at RT), 91 to 364 mg/mL (≈ 157 to 627 mM). Further, the solubility in series [5] (heptane, 23 °C, organic solvent or mixture, thermodynamic from solid, Heptane, RT (~23° C.), visually estimated, read-out: Solubility at RT) is < 6 mg/mL; in series [5] (methanol, 23 °C, organic solvent or mixture, thermodynamic from solid, Methanol, RT (~23° C.), visually estimated, read-out: Solubility at RT) it was 48 to 96 mg/mL (≈ 82.7 to 165 mM); in series [5] (t-butyl methyl ether (MTBE), 23 °C, organic solvent or mixture, thermodynamic from solid, t-Butyl Methyl Ether (MTBE), RT (~23° C.), visually estimated, read-out: Solubility at RT) it was < 6 mg/mL; in series [5] (tetrahydrofuran, 23 °C, organic solvent or mixture, thermodynamic from solid, Tetrahydrofuran, RT (~23° C.), visually estimated, read-out: Solubility at RT) it was 92 to 368 mg/mL (≈ 159 to 634 mM); in series [5] (toluene, 23 °C, organic solvent or mixture, thermodynamic from solid, Toluene, RT (~23° C.), visually estimated, read-out: Solubility at RT) it was < 5.35 mg/mL; in series [5] (toluene, 40 °C, organic solvent or mixture, thermodynamic from solid, Toluene, 40° C., read-out: Solubility at 40° C.), > 5.35 mg/mL. In series [5] (water, 23 °C, water, thermodynamic from solid, Water, RT (~23° C.), visually estimated, read-out: Solubility at RT), the solubility is < 6 mg/mL. For the same molecule, the “Solubility at RT” value is recorded as >452 mg/mL in series [5] (Dimethyl Sulfoxide, RT (~23° C.), visually estimated); <5.59 mg/mL in series [5] (Heptane, RT (~23° C.), visually estimated); <5.59 mg/mL in series [5] (Water, RT (~23° C.), visually estimated); <5.71 mg/mL in series [5] (t-Butyl Methyl Ether (MTBE), RT (~23° C.), visually estimated).
As for `CC(=O)c1nn(CC(=O)N2C[C@H](F)C[C@H]2C(=O)Nc2cccc(Br)n2)c2ccc(-c3cnc(C)nc3)cc12` [Compound 1, danicopan], the “PXRD Results 4 days/RT” value in series [2] (setting [6]) is “Form III”; in series [2] (CR1, 2-propanol, water activity 0) it was “Form II”; in series [2] (CR2, EtOAc, water activity 0), “Form II”; in series [2] (CR3, Methanol: 10 vol % Water, water activity 0.33), “Form II”; in series [2] (CR4, 2-propanol: 5 vol % Water, water activity 0.55), “Form II”; in series [2] (setting [7]) it was “Form V”. Moreover, the results for the “PXRD Results 8 days/RT” value in series [2] (setting [6]) and in series [2] (setting [7]) were “Form IH” and “Form V”, respectively.
Turning to `CC(=O)c1nn(CC(=O)N2C[C@H](F)C[C@H]2C(=O)Nc2cccc(Br)n2)c2ccc(-c3cnc(C)nc3)cc12` [Form V], in series [2], the “water activity value (aw)” value stood at 0.75.

Broadly, the solubility is the concentration that dissolves in the medium under given conditions. Broadly, the Solubility is the dissolved amount per volume that the medium holds.
